Reference: ChEMBL document CHEMBL3414508, “A few atoms make the difference: synthetic, CD, NMR and computational studies on antiviral and antibacterial activities of glycopeptide antibiotic aglycon derivatives” (Eur J Med Chem, 2015)
In brackets after ≈: the same amount, converted by molar mass.

Assays:
Assay type in all cases: functional
Bacillus spizizenii = assay: Antibacterial activity against Bacillus subtilis ATCC 6633 by broth microdilution method
Staphylococcus aureus [1] = assay: Antibacterial activity against methicillin-sensitive Staphylococcus aureus ATCC 29213 by broth microdilution method
Staphylococcus aureus [2] = assay: Antibacterial activity against methicillin-resistant Staphylococcus aureus ATCC 33591 by broth microdilution method
[3] = test system: Staphylococcus epidermidis; assay: Antibacterial activity against Staphylococcus epidermidis expressing mecA by broth microdilution method
[4] = test system: Staphylococcus epidermidis; assay: Antibacterial activity against biofilm producing Staphylococcus epidermidis ATCC 35984 by broth microdilution method
Enterococcus faecalis [5] = assay: Antibacterial activity against Enterococcus faecalis ATCC 29212 by broth microdilution method
Enterococcus faecalis [6] = assay: Antibacterial activity against VanA+ Enterococcus faecalis 15376 by broth microdilution method
Enterococcus faecalis [7] = assay: Antibacterial activity against VanB+ Enterococcus faecalis ATCC 51299 by broth microdilution method

SMILES	MIC (Bacillus spizizenii) [µg/mL]	MIC (Staphylococcus aureus [1]) [µg/mL]	MIC (Staphylococcus aureus [2]) [µg/mL]	MIC [3] [µg/mL]	MIC [4] [µg/mL]	MIC (Enterococcus faecalis [5]) [µg/mL]	MIC (Enterococcus faecalis [6]) [µg/mL]	MIC (Enterococcus faecalis [7]) [µg/mL]
COC(=O)[C@H]1NC(=O)[C@H]2NC(=O)[C@H](NC(=O)[C@@H]3NC(=O)[C@H]4NC(=O)[C@@H](Cc5ccc(c(Cl)c5)Oc5cc3cc(c5O)Oc3ccc(cc3Cl)[C@H]2O[C@@H]2O[C@H](CO)[C@@H](O)[C@H](O)[C@H]2NC(C)=O)NC(=O)[C@H](N)c2ccc(O)c(c2)Oc2cc(O)cc4c2)c2ccc(O)c(c2)-c2c(O)cc(O)cc21	0.5 (≈ 0.353 µM)	0.5 (≈ 0.353 µM)	1 (≈ 0.706 µM)	0.5 (≈ 0.353 µM)	0.5 (≈ 0.353 µM)	2 (≈ 1.41 µM)	0.5 (≈ 0.353 µM)	1 (≈ 0.706 µM)
COC(=O)[C@H]1NC(=O)[C@H]2NC(=O)[C@H](NC(=O)[C@@H]3NC(=O)[C@H]4NC(=O)[C@@H](Cc5ccc(c(Cl)c5)Oc5cc3cc(c5O)Oc3ccc(cc3Cl)[C@H]2O[C@@H]2O[C@H](CO)[C@@H](O)[C@H](O)[C@H]2NC(C)=O)NC(=O)[C@H](Nc2c(OC)c(=O)c2=O)c2ccc(O)c(c2)Oc2cc(O)cc4c2)c2ccc(O)c(c2)-c2c(O)cc(O)cc21	8 (≈ 5.24 µM)	2 (≈ 1.31 µM)	8 (≈ 5.24 µM)	8 (≈ 5.24 µM)	4 (≈ 2.62 µM)	2 (≈ 1.31 µM)	0.5 (≈ 0.328 µM)	4 (≈ 2.62 µM)
COC(=O)[C@H]1NC(=O)[C@H]2NC(=O)[C@H](NC(=O)[C@@H]3NC(=O)[C@H]4NC(=O)[C@@H](Cc5ccc(c(Cl)c5)Oc5cc3cc(c5O)Oc3ccc(cc3Cl)[C@H]2O[C@@H]2O[C@H](CO)[C@@H](O)[C@H](O)[C@H]2NC(C)=O)NC(=O)[C@H](Nc2c(NCc3ccc(-c5ccccc5)cc3)c(=O)c2=O)c2ccc(O)c(c2)Oc2cc(O)cc4c2)c2ccc(O)c(c2)-c2c(O)cc(O)cc21	8 (≈ 4.77 µM)	2 (≈ 1.19 µM)	0.5 (≈ 0.298 µM)	0.5 (≈ 0.298 µM)	0.5 (≈ 0.298 µM)	0.5 (≈ 0.298 µM)	0.5 (≈ 0.298 µM)	0.5 (≈ 0.298 µM)
COc1c(N[C@H]2C(=O)N[C@@H]3Cc4ccc(c(Cl)c4)Oc4cc5cc(c4O)Oc4ccc(cc4Cl)[C@@H](O)[C@@H]4NC(=O)[C@H](NC(=O)[C@@H]5NC(=O)[C@@H](NC3=O)c3cc(O)cc(c3)Oc3cc2ccc3O)c2ccc(O)c(c2)-c2c(O)cc(O)cc2[C@@H](C(=O)O)NC4=O)c(=O)c1=O	16 (≈ 12.2 µM)	1 (≈ 0.764 µM)	2 (≈ 1.53 µM)	2 (≈ 1.53 µM)	2 (≈ 1.53 µM)	4 (≈ 3.06 µM)	2 (≈ 1.53 µM)	8 (≈ 6.11 µM)
O=C1N[C@H]2C(=O)N[C@H]3C(=O)N[C@H](C(=O)N[C@H](C(=O)O)c4cc(O)cc(O)c4-c4cc3ccc4O)[C@H](O)c3ccc(c(Cl)c3)Oc3cc2cc(c3O)Oc2ccc(cc2Cl)C[C@H]2NC(=O)[C@H](Nc3c(NCc4ccc(-c5ccccc5)cc4)c(=O)c3=O)c3ccc(O)c(c3)Oc3cc(O)cc(c3)[C@@H]1NC2=O	8 (≈ 5.48 µM)	2 (≈ 1.37 µM)	2 (≈ 1.37 µM)	2 (≈ 1.37 µM)	0.5 (≈ 0.342 µM)	1 (≈ 0.685 µM)	1 (≈ 0.685 µM)	8 (≈ 5.48 µM)
COC(=O)[C@H]1NC(=O)[C@H]2NC(=O)[C@H](NC(=O)[C@@H]3NC(=O)[C@H]4NC(=O)[C@@H](Cc5ccc(c(Cl)c5)Oc5cc3cc(c5O)Oc3ccc(cc3Cl)[C@H]2O)NC(=O)[C@H](Nc2c(NCc3ccc(-c5ccccc5)cc3)c(=O)c2=O)c2ccc(O)c(c2)Oc2cc(O)cc4c2)c2ccc(O)c(c2)-c2c(O)cc(O)cc21	256 (≈ 174 µM)	128 (≈ 86.8 µM)	256 (≈ 174 µM)	32 (≈ 21.7 µM)	256 (≈ 174 µM)	64 (≈ 43.4 µM)	128 (≈ 86.8 µM)	256 (≈ 174 µM)
COC(=O)[C@H]1NC(=O)[C@H]2NC(=O)[C@H](NC(=O)[C@@H]3NC(=O)[C@H]4NC(=O)[C@@H](Cc5ccc(cc5)Oc5cc3cc(c5O)Oc3ccc(cc3)[C@H]2O)NC(=O)[C@H](Nc2c(NCc3ccc(-c5ccccc5)cc3)c(=O)c2=O)c2ccc(O)c(c2)Oc2cc(O)cc4c2)c2ccc(O)c(c2)-c2c(O)cc(O)cc21	16 (≈ 11.4 µM)	8 (≈ 5.69 µM)	32 (≈ 22.8 µM)	8 (≈ 5.69 µM)	32 (≈ 22.8 µM)	4 (≈ 2.85 µM)	16 (≈ 11.4 µM)	4 (≈ 2.85 µM)
Cc1c(O)cc2cc1Oc1cc(ccc1O)[C@@H](N)C(=O)N[C@H]1C(=O)N[C@@H]2C(=O)N[C@H]2C(=O)N[C@H]3C(=O)N[C@H](C(=O)N[C@@H](C(=O)O)c4cc(O)cc(O[C@H]5O[C@H](CO)[C@@H](O)[C@H](O)[C@@H]5O)c4-c4cc3ccc4O)[C@H](O[C@H]3C[C@@H](N)[C@@H](O)[C@H](C)O3)c3ccc(cc3)Oc3cc2cc(c3O[C@H]2O[C@@H](CO[C@H]3O[C@H](C)[C@@H](O)[C@H](O)[C@@H]3O)[C@H](O)[C@@H](O)[C@@H]2O[C@H]2O[C@H](CO)[C@@H](O)[C@H](O)[C@@H]2O[C@H]2O[C@H](CO)[C@@H](O)[C@@H]2O)Oc2ccc(cc2)[C@H]1O [RISTOCETIN]	16 (≈ 7.79 µM)	128 (≈ 62.3 µM)	32 (≈ 15.6 µM)	128 (≈ 62.3 µM)	2 (≈ 0.974 µM)	4 (≈ 1.95 µM)	16 (≈ 7.79 µM)	256 (≈ 125 µM)
